Reference: US5155106A, “Cysteamine derivatives and antirheumatic agents containing cysteamine derivatives” (Terumo Kabushiki Kaisha, priority 1988, dated 1992)

Tested on: adjuvant arthritis of Lewis rats
Assay: Suppression of adjuvant arthritis in Lewis rats (hind leg sole edema, Mycobacterium butyricum)
Type: in vivo
Settings: Rattus norvegicus, 432 h, 100 mg/kg oral once a day, 18 days after sensitization; for inhibition in vivo at 100 mg/kg: edema increase vs control group, t-test *P<0.05, **P<0.02, ***P<0.01; for change in vivo at 100 mg/kg: percent increase vs volume before sensitization, control 130.9 ± 5.1 (Table 1), 137.6 ± 15.7 (Table 2), 131.0 ± 10.0 (Table 3), read-out: Increase in volume due to edema
Protocol: The compounds according to the present invention obtained in the Examples were evaluated for their effects against adjuvant arthritis (diseased animal model for chronic articular rheumatism) of Lewis rats.
In the Experiment, five six week old male Lewis rats (body weight, 130 to 160 g) were treated as one group.
To right hind leg sole of rats from each group was subcutaneously injected with 0.2 mg of dry culture of Mycobacterium butyricum suspended in liquid paraffin. The compounds were suspended in 5% Tween 80, and the suspensions were orally administered to the rats once a day from the day next to the day of sensitization. The rats of both the medicated groups and the control group (non-medicated group) were intermittently measured for their volume of edema in their hind leg sole to examine the effects of the compounds for suppressing the adjuvant arthritis.
Percent increase in the volume of the hind leg sole due to the edema was calculated on the basis of the volume before sensitization, and suppression was determined by comparing the percent increase of the medicated group with that of the control group.

SMILES | inhibition in vivo at 100 mg/kg | change in vivo at 100 mg/kg
COc1ccc(C(=O)NCCS)c(O)c1 [XVII, N-(2-hydroxy-4-methoxybenzoyl)cysteamine] | 38.4% | 84.8 ± 10.4%
CCCCCCCCSCCNC(=O)c1ccc(OC)c(CCC)c1O [XX, 2-(2'-hydroxy-3'-n-propyl-4'-methoxybenzoylamino)ethyl-n-octylsulfide] | 21.1% | 103 ± 8.8%
CCCc1c(OC)ccc(C(=O)N2CCSC2)c1O [XV, N-(2-hydroxy-3-n-propyl-4-methoxybenzoyl)thiazolidine] | 27% | 95.6 ± 9.6%
COc1ccc(C(=O)NC2=NCCS2)c(O)c1 [XIII, 2-(2-hydroxy-4-methoxybenzoylamino)thiazoline] | 23.5% | 100 ± 3.1%
CCCCCCCCSCCNC(=O)c1ccc(OC)cc1O [XIX, 2-(2'-hydroxy-4'-methoxybenzoylamino)ethyl-n-octylsulfide] | 41.4% | 76.8 ± 17.8%
CCCc1c(OC)ccc(C(=O)NCc2cccs2)c1O [XVI, N-(2-hydroxy-3-n-propyl-4-methoxybenzoyl)-2-thiophenemethylamine] | 34.4% | 85.9 ± 11.1%
CCCc1c(OC)ccc(C(=O)N2CCSCC2)c1O [XIV, N-(2-hydroxy-3-n-propyl-4-methoxybenzoyl)thiomorpholine] | 21.5% | 103 ± 10%
CCCc1c(OC)ccc(C(=O)NCCS)c1O [XVIII] | 30.1% | 91.6 ± 10.9%
